According to ChEMBL document CHEMBL6109103, “Dodecapeptides derived from human cathelicidin with potent activity against carbapenem-resistant Acinetobacter baumannii” (Eur J Med Chem, 2025):
Calls of active or inactive are those of the source. The calls are words filed in the database; no cut-off is given here.

Experiments:
proteinase K = assay: Proteolytic stability assessed as proteinase K (unknown origin)-mediated drug degradation measured for 20 mins by LC-MS analysis; type: ADME, Homo sapiens; settings: read-out: Drug degradation
Acinetobacter baumannii [1] = assay: Induction of morphological changes in carbapenem-resistant Acinetobacter baumannii at 6.25 microg/ml measured for 24 hrs by SEM analysis; type: functional, organism-based; settings: dose 6.25 µg/ml
Lipoteichoic acid = assay: Binding affinity to […] bacterial Lipoteichoic acid assessed as dissociation constant by BLI analysis; design: species or system Bacteria
Acinetobacter baumannii [2] = assay: Antibacterial activity against carbapenem-resistant Acinetobacter baumannii clinical isolate 6 assessed as bacterial killing at 3.16 microg/ml measured for 10 to 30 mins in presence of mouse serum; type: functional, organism-based; settings: dose 3.16 µg/ml, time 10-30 min
HaCaT = assay: Cytotoxicity against human HaCaT cells assessed as cell death up to 100 microg/ml measured upto 24 hrs; type: toxicity, cell-based; settings: dose < 100 µg/ml
Acinetobacter baumannii [3] = assay: Antibacterial activity against multidrug-resistant Acinetobacter baumannii assessed as inhibition of bacterial growth incubated for 24 hrs by broth dilution assay; type: functional
Staphylococcus aureus [4] = assay: Antibacterial activity against Methicillin-resistant Staphylococcus aureus ATCC 43300 assessed as inhibition of bacterial growth incubated for 24 hrs by broth dilution assay; type: functional
Acinetobacter baumannii [5] = assay: Synergistic antibacterial activity against carbapenem-resistant Acinetobacter baumannii clinical isolate 6 in presence of CTX by microdilution checkerboard assay; type: functional, organism-based
[6] = Toxicity in BALB/c mouse assessed as animal survival at 1.25 mg/kg, NAS measured for 5 days; type: organism-based; settings: in vivo, inhaled or intranasal, time 5 day
[7] = Toxicity in BALB/c mouse assessed as animal survival at 4 to 64 mg/kg, ip measured for 5 days; type: organism-based; settings: in vivo, 120 h, dose 4-64 mg/kg, time 5 day
[8] = Toxicity in BALB/c mouse assessed as heart damage at 64 mg/kg, ip measured for 3 days by H and E staining based analysis; type: organism-based; settings: in vivo, 72 h, time 3 day
Acinetobacter baumannii [9] = assay: Antibacterial activity against carbapenem-resistant Acinetobacter baumannii clinical isolate 3 assessed as inhibition of bacterial growth incubated for 24 hrs by broth dilution assay; type: functional
Acinetobacter baumannii [10] = assay: Antibacterial activity against carbapenem-resistant Acinetobacter baumannii clinical isolate 6 assessed as bacterial killing at 3.16 microg/ml measured for 1 hr in presence of NaCl; type: functional, organism-based; settings: dose 3.16 µg/ml
Acinetobacter baumannii [11] = assay: Synergistic antibacterial activity against carbapenem-resistant Acinetobacter baumannii clinical isolate 6 in presence of tetracycline by microdilution checkerboard assay; type: functional, organism-based
Acinetobacter baumannii [12] = assay: Antibacterial activity against Acinetobacter baumannii ATCC 19606 assessed as inhibition of bacterial growth incubated for 24 hrs by broth dilution assay; type: functional
Acinetobacter baumannii [13] = assay: Antibacterial activity against carbapenem-resistant Acinetobacter baumannii clinical isolate 6 assessed as bacterial killing at 3.16 microg/ml measured within 10 mins; type: functional, organism-based; settings: dose 3.16 µg/ml
Pseudomonas aeruginosa = assay: Antibacterial activity against human Pseudomonas aeruginosa assessed as inhibition of bacterial growth; type: functional, organism-based
[14] = Toxicity in BALB/c mouse assessed as spleen damage at 64 mg/kg, ip measured for 3 days by H and E staining based analysis; type: organism-based; settings: in vivo, 72 h, time 3 day
Acinetobacter baumannii [15] = assay: Antibacterial activity against carbapenem-resistant Acinetobacter baumannii clinical isolate 8 assessed as inhibition of bacterial growth incubated for 24 hrs by broth dilution assay; type: functional
[16] = Hemolytic activity at mouse RBC assessed as hemolysis; type: toxicity, cell-based, Erythrocyte; settings: mouse red blood cells, read-out: Activity
Escherichia coli = assay: Antibacterial activity against human Escherichia coli assessed as inhibition of bacterial growth; type: functional, organism-based
Cell membrane [17] = assay: Induction of outer membrane permeabilization in carbapenem-resistant Acinetobacter baumannii clinical isolate 6 at 6.25 to 12.5 microg/ml measured for 1 hr by NPN-dye based assay; settings: dose 6.25-12.5 µg/ml
[18] = Toxicity in BALB/c mouse assessed as lung damage at 64 mg/kg, ip measured for 3 days by H and E staining based analysis; type: organism-based; settings: in vivo, 72 h, time 3 day
Acinetobacter baumannii [19] = assay: Antibacterial activity against carbapenem-resistant Acinetobacter baumannii clinical isolate 1 assessed as inhibition of bacterial growth incubated for 24 hrs by broth dilution assay; type: functional
Acinetobacter baumannii [20] = assay: Antibacterial activity against carbapenem-resistant Acinetobacter baumannii clinical isolate 2 assessed as inhibition of bacterial growth incubated for 24 hrs by broth dilution assay; type: functional
Cell membrane [21] = assay: Induction of inner membrane permeabilization in carbapenem-resistant Acinetobacter baumannii clinical isolate 6 at 6.25 microg/ml measured for 1 hr by NPN-dye based assay; settings: dose 6.25 µg/ml
Acinetobacter baumannii [22] = assay: Antibacterial activity against carbapenem-resistant Acinetobacter baumannii clinical isolate 6 infected in BALB/c mouse assessed as survival rate at 1.25 mg/kg, NAS administered once a day for 3 days; type: functional; settings: 72 h, time 3 day
Acinetobacter baumannii [23] = assay: Antibacterial activity against carbapenem-resistant Acinetobacter baumannii clinical isolate 7 assessed as inhibition of bacterial growth incubated for 24 hrs by broth dilution assay; type: functional
[24] = Toxicity in BALB/c mouse assessed as liver damage at 64 mg/kg, ip measured for 3 days by H and E staining based analysis; type: organism-based; settings: in vivo, 72 h, time 3 day
[25] = Binding affinity to gram negative bacterial lipid II assessed as dissociation constant by BLI analysis; design: species or system Bacteria
Staphylococcus aureus [26] = assay: Antibacterial activity against Staphylococcus aureus […] assessed as inhibition of bacterial growth incubated for 24 hrs by broth dilution assay; type: functional
Acinetobacter baumannii [27] = assay: Antibacterial activity against carbapenem-resistant Acinetobacter baumannii clinical isolate 6 assessed as inhibition of bacterial growth incubated for 24 hrs by broth dilution assay; type: functional
Acinetobacter baumannii [28] = assay: Antibacterial activity against carbapenem-resistant Acinetobacter baumannii clinical isolate 4 assessed as inhibition of bacterial growth incubated for 24 hrs by broth dilution assay; type: functional
Acinetobacter baumannii [29] = assay: Antibacterial activity against carbapenem-resistant Acinetobacter baumannii clinical isolate 5 assessed as inhibition of bacterial growth incubated for 24 hrs by broth dilution assay; type: functional
[30] = Toxicity in BALB/c mouse assessed as kidney damage at 64 mg/kg, ip measured for 3 days by H and E staining based analysis; type: organism-based; settings: in vivo, 72 h, time 3 day
Acinetobacter baumannii [31] = assay: Antibacterial activity against carbapenem-resistant Acinetobacter baumannii clinical isolate 6 assessed as bacterial killing at 3.16 microg/ml measured within 10 mins relative to control; type: functional; settings: dose 3.16 µg/ml

| Substance | Kd (Lipoteichoic acid) [nM] | Activity (HaCaT) | MIC (Acinetobacter baumannii [3]) [µg/mL] | MIC (Staphylococcus aureus [4]) [µg/mL] | MIC (Acinetobacter baumannii [9]) [µg/mL] | Activity (Acinetobacter baumannii [10]) | MIC (Acinetobacter baumannii [12]) [µg/mL] | MIC (Acinetobacter baumannii [15]) [µg/mL] | MIC (Acinetobacter baumannii [19]) [µg/mL] | MIC (Acinetobacter baumannii [20]) [µg/mL] | MIC (Acinetobacter baumannii [23]) [µg/mL] | Kd [25] [nM] | MIC (Staphylococcus aureus [26]) [µg/mL] | MIC (Acinetobacter baumannii [27]) [µg/mL] | MIC (Acinetobacter baumannii [28]) [µg/mL] | MIC (Acinetobacter baumannii [29]) [µg/mL] | other results |
| --- | --- | --- | --- | --- | --- | --- | --- | --- | --- | --- | --- | --- | --- | --- | --- | --- | --- |
| H-KRIVRRIKIFLR-OH | 48.3 | Non-toxic | 5 | 80 | 5 | Active | 10 | 10 | 10 | 20 | 10 | 7.14 | 80 | 2.5 | 5 | 10 | metabolised at 20 min (proteinase K): 89.4%; Activity (Acinetobacter baumannii [1]): Active; Activity (Acinetobacter baumannii [2]): Active; Activity (Acinetobacter baumannii [5]): Active; survival at 120 h [6]: 30%; Activity [7]: Non-toxic; Activity [8]: Non-toxic; Activity (Acinetobacter baumannii [11]): Active; Activity (Acinetobacter baumannii [13]): Active; Activity (Pseudomonas aeruginosa): Active; Activity [14]: Non-toxic; hemolysis [16]: < 1%; Activity (Escherichia coli): Active; Activity (Cell membrane [17]): Active; Activity [18]: Non-toxic; Activity (Cell membrane [21]): Active; survival at 1.25 mg/kg (Acinetobacter baumannii [22]): 40%; Activity [24]: Non-toxic; Activity [30]: Non-toxic |
| H-KRIVQRIKDFLR-OH | 241 | Non-toxic | 160 | > 320 | 320 | inactive | > 320 | 160 | 320 | 320 | 160 | 171 | > 320 | 160 | 160 | 160 | Activity (Acinetobacter baumannii [31]): 19.5% |
